From PubChem BioAssay AID288 (DTP/NCI, 2004)
Results filed as inconclusive are left out.

Test system: BDF1 mice, M5076 sarcoma s.c., survival/tumor T/C
Experiment: NCI In Vivo Anticancer Drug Screen. Data for tumor model Sarcoma M5076 (subcutaneous) in B6D2F1 (BDF1) mice
Method: The antitumor activity of compounds was measured in mice bearing transplantable tumors. Survival or tumor size were measured and the results are expressed as the measurement made in the treated group (T) divided by the measurement made in the vehicle treated control group (C). The tumor model used in this assay is Sarcoma M5076 (subcutaneous) in B6D2F1 (BDF1) mice

Compound: CC(=O)O[C@H]1C(=O)[C@@]2(C)[C@H]([C@H](OC(=O)c3ccccc3)[C@]3(O)C[C@H](OC(=O)[C@H](O)[C@@H](NC(=O)c4ccccc4)c4ccccc4)C(C)=C1C3(C)C)[C@]1(OC(C)=O)CO[C@@H]1C[C@@H]2O
- T/C (endpoint: mean tumor weight, dose: 10.0 mg/kg/injection, schedule: Q02DX011 (ip), vehicle: Klucel (hydroxypropylcellulose) (HPC), higher = larger tumour): 103 % of control
- T/C (endpoint: mean tumor weight, dose: 20.0 mg/kg/injection, schedule: Q02DX011 (ip), vehicle: Klucel (hydroxypropylcellulose) (HPC), higher = larger tumour): 78 % of control
- T/C (endpoint: mean tumor weight, dose: 40.0 mg/kg/injection, schedule: Q02DX011 (ip), vehicle: Klucel (hydroxypropylcellulose) (HPC), higher = larger tumour): 57 % of control
- T/C (endpoint: median survival time, dose: 1.32 mg/kg/injection, schedule: Q02DX011 (ip), vehicle: Klucel (hydroxypropylcellulose) (HPC), higher = longer survival): 108 % of control
- T/C (endpoint: median survival time, dose: 1.32 mg/kg/injection, schedule: Q02DX011 (ip), vehicle: other, higher = longer survival): 115 % of control
- T/C (endpoint: median survival time, dose: 1.98 mg/kg/injection, schedule: Q02DX011 (ip), vehicle: Klucel (hydroxypropylcellulose) (HPC), higher = longer survival): 111 % of control
- T/C (endpoint: median survival time, dose: 1.98 mg/kg/injection, schedule: Q02DX011 (ip), vehicle: other, higher = longer survival): 109 % of control
- T/C (endpoint: median survival time, dose: 2.5 mg/kg/injection, schedule: Q04DX003 (ip), vehicle: Klucel (hydroxypropylcellulose) (HPC), higher = longer survival): 85 % of control
- T/C (endpoint: median survival time, dose: 2.96 mg/kg/injection, schedule: Q02DX011 (ip), vehicle: Klucel (hydroxypropylcellulose) (HPC), higher = longer survival): 103 % of control
- T/C (endpoint: median survival time, dose: 4.44 mg/kg/injection, schedule: Q02DX011 (ip), vehicle: Klucel (hydroxypropylcellulose) (HPC), higher = longer survival): 111 % of control
- T/C (endpoint: median survival time, dose: 4.44 mg/kg/injection, schedule: Q02DX011 (ip), vehicle: other, higher = longer survival): 115 % of control
- T/C (endpoint: median survival time, dose: 5.0 mg/kg/injection, schedule: Q04DX003 (ip), vehicle: Klucel (hydroxypropylcellulose) (HPC), higher = longer survival): 103 % of control
- T/C (endpoint: median survival time, dose: 6.67 mg/kg/injection, schedule: Q02DX011 (ip), vehicle: Klucel (hydroxypropylcellulose) (HPC), higher = longer survival): 119 % of control
- T/C (endpoint: median survival time, dose: 6.67 mg/kg/injection, schedule: Q02DX011 (ip), vehicle: other, higher = longer survival): 112 % of control
- T/C (endpoint: median survival time, dose: 10.0 mg/kg/injection, schedule: Q02DX011 (ip), vehicle: Klucel (hydroxypropylcellulose) (HPC), higher = longer survival): 110 % of control
- T/C (endpoint: median survival time, dose: 10.0 mg/kg/injection, schedule: Q02DX011 (ip), vehicle: other, higher = longer survival): 106 % of control
- T/C (endpoint: median survival time, dose: 10.0 mg/kg/injection, schedule: Q04DX003 (ip), vehicle: Klucel (hydroxypropylcellulose) (HPC), higher = longer survival): 109 % of control
- T/C (endpoint: median survival time, dose: 15.0 mg/kg/injection, schedule: Q02DX011 (ip), vehicle: Klucel (hydroxypropylcellulose) (HPC), higher = longer survival): 91 % of control
- T/C (endpoint: median survival time, dose: 15.0 mg/kg/injection, schedule: Q02DX011 (ip), vehicle: other, higher = longer survival): 107 % of control
- T/C (endpoint: median survival time, dose: 22.5 mg/kg/injection, schedule: Q02DX011 (ip), vehicle: other, higher = longer survival): 108 % of control
- T/C (endpoint: median tumor weight (est.), dose: 1.32 mg/kg/injection, schedule: Q02DX011 (ip), vehicle: Klucel (hydroxypropylcellulose) (HPC), higher = larger tumour): 83 % of control
- T/C (endpoint: median tumor weight (est.), dose: 1.32 mg/kg/injection, schedule: Q02DX011 (ip), vehicle: other, higher = larger tumour): 106 % of control
- T/C (endpoint: median tumor weight (est.), dose: 1.98 mg/kg/injection, schedule: Q02DX011 (ip), vehicle: Klucel (hydroxypropylcellulose) (HPC), higher = larger tumour): 73 % of control
- T/C (endpoint: median tumor weight (est.), dose: 1.98 mg/kg/injection, schedule: Q02DX011 (ip), vehicle: other, higher = larger tumour): 96 % of control
- T/C (endpoint: median tumor weight (est.), dose: 2.96 mg/kg/injection, schedule: Q02DX011 (ip), vehicle: Klucel (hydroxypropylcellulose) (HPC), higher = larger tumour): 87 % of control
- T/C (endpoint: median tumor weight (est.), dose: 2.96 mg/kg/injection, schedule: Q02DX011 (ip), vehicle: other, higher = larger tumour): 87 % of control
- T/C (endpoint: median tumor weight (est.), dose: 4.44 mg/kg/injection, schedule: Q02DX011 (ip), vehicle: Klucel (hydroxypropylcellulose) (HPC), higher = larger tumour): 62 % of control
- T/C (endpoint: median tumor weight (est.), dose: 4.44 mg/kg/injection, schedule: Q02DX011 (ip), vehicle: other, higher = larger tumour): 76 % of control
- T/C (endpoint: median tumor weight (est.), dose: 6.67 mg/kg/injection, schedule: Q02DX011 (ip), vehicle: Klucel (hydroxypropylcellulose) (HPC), higher = larger tumour): 58 % of control
- T/C (endpoint: median tumor weight (est.), dose: 6.67 mg/kg/injection, schedule: Q02DX011 (ip), vehicle: other, higher = larger tumour): 79 % of control
- T/C (endpoint: median tumor weight (est.), dose: 10.0 mg/kg/injection, schedule: Q02DX011 (ip), vehicle: other, higher = larger tumour): 63 % of control
- T/C (endpoint: median tumor weight (est.), dose: 15.0 mg/kg/injection, schedule: Q02DX011 (ip), vehicle: Klucel (hydroxypropylcellulose) (HPC), higher = larger tumour): 73 % of control
- T/C (endpoint: median tumor weight (est.), dose: 15.0 mg/kg/injection, schedule: Q02DX011 (ip), vehicle: other, higher = larger tumour): 59 % of control
- T/C (endpoint: median tumor weight (est.), dose: 20.0 mg/kg/injection, schedule: Q02DX011 (ip), vehicle: Klucel (hydroxypropylcellulose) (HPC), higher = larger tumour): 63 % of control
- T/C (endpoint: median tumor weight (est.), dose: 22.5 mg/kg/injection, schedule: Q02DX011 (ip), vehicle: other, higher = larger tumour): 38 % of control
- T/C (endpoint: median tumor weight (est.), dose: 40.0 mg/kg/injection, schedule: Q02DX011 (ip), vehicle: Klucel (hydroxypropylcellulose) (HPC), higher = larger tumour): 31 % of control
